From US20080234252A1, “Compounds Useful in Therapy” (Pfizer Inc, priority 2005, published 2008)

molecular target: T1, human V1A receptor (Homo sapiens, UniProt P37288); assay: V1A filter binding assay ([3H]-AVP binding to CHO-hV1A membranes)
T1 construct: expressed in transfected cells; host or cells: CHO cells (CHO-hV1A line provided by Marc Thibonnier, Case Western Reserve University)
Method: 1.0 V1A Filter Binding Assay
Receptor binding assays were performed on cellular membranes prepared from CHO cells stably expressing the human V1A receptor, (CHO-hV1A). The CHO-hV1A cell line was kindly provided under a licensing agreement by Marc Thibonnier, Dept. of Medicine, Case Western Reserve University School of Medicine, Cleveland, Ohio. CHO-hV1A cells were routinely maintained at 37° C. in humidified atmosphere with 5% CO2 in DMEM/Hams F12 nutrient mix supplemented with 10% fetal bovine serum, 2 mM L-glutamine, 15 mM HEPES and 400 μg/ml G418. For bulk production of cell pellets, adherent CHO-hV1A cells were grown to confluency of 90-100% in 850 cm^2 roller bottles containing a medium of DMEM/Hams F12 Nutrient Mix supplemented with 10% fetal bovine serum, 2 mM L-glutamine and 15 mM HEPES. Confluent CHO-hV1A cells were washed with phosphate-buffered saline (PBS), harvested into ice cold PBS and centrifuged at 1,000 rpm. Cell pellets were stored at −80° C. until use. Cell pellets were thawed on ice and homogenised in membrane preparation buffer consisting of 50 mM Tris-HCl, pH 7.4, 5 mM MgCl2 and supplemented with a protease inhibitor cocktail, (Roche). The cell homogenate was centrifuged at 1000 rpm, 10 min, 4° C. and the supernatant was removed and stored on ice. The remaining pellet was homogenised and centrifuged as before. The supernatants were pooled and centrifuged at 25,000×g for 30 min at 4° C. […] Protein concentration was determined using Bradford reagent and BSA as a standard.
Protein linearity followed by saturation binding studies were performed on each new batch of membrane. […] Saturation binding studies were then performed using various concentrations of [^3H]-arginine vasopressin, [^3H]-AVP (0.05 nM-100 nM) and the Kd and Bmax determined.
Compounds were tested for their effects on [^3H]-AVP binding to CHO-hV1A membranes, (^3H-AVP; specific activity 65.5 Ci/mmol; NEN Life Sciences). […] The plates were sealed and counted on a TopCount Microplate Scintillation Counter (Packard Instruments). Non-specific binding (NSB) was determined using 1 μM unlabelled d(CH2)5Tyr(Me)AVP ([β-mercapto-β,β-cyclopentamethylenepropionyl, 0-Me-Tyr^2,Arg^8]-vasopressin ) (βMCPVP), (Sigma). The radioligand binding data was analysed using a four parameter logistic equation with the min forced to 0%. […] Specific binding was calculated by subtracting the mean NSB cpm from the mean Total cpm. For test compounds the amount of ligand bound to the receptor was expressed as % bound=(sample cpm−mean NSB cpm)/specific binding cpm×100. […] The inhibitory dissociation constant (Ki) was calculated using the Cheng-Prusoff equation: Ki=IC50/(1+[L]/Kd) where [L] is the concentration of ligand present in the well and Kd is the dissociation constant of the radioligand obtained from Scatchard plot analysis. […]

T1 sequence (P37288 whole entry): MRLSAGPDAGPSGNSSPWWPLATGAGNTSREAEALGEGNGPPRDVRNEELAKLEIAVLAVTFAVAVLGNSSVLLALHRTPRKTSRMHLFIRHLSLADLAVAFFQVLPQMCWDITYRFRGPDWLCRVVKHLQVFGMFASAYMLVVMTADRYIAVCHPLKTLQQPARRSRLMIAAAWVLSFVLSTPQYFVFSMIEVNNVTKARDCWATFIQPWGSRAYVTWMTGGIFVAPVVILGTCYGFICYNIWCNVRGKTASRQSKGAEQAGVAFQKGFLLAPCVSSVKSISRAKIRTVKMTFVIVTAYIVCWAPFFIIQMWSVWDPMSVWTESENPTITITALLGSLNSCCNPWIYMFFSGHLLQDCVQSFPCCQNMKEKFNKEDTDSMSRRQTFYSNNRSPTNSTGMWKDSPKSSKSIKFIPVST

Row | Structure (SMILES) | Ki [nM]
1 | Clc1ccc(-n2c(Cn3nccn3)nnc2N2Cc3ccccc3C2)cc1 [Example 8, 2-[4-(4-Chlorophenyl)-5-(2H-1,2,3-triazol-2-ylmethyl)-4H-1,2,4-triazol-3-yl]isoindoline] | 0.88
2 | COCc1nnc(N2Cc3ccccc3C2)n1-c1ccc(Cl)cc1 [Example 1, 2-[4-(4-Chlorophenyl)-5-(methoxymethyl)-4H-1,2,4-triazol-3-yl]isoindoline] | 9.69
3 | Cc1nnc(N2CCC3(CC2)OCc2ccccc23)n1-c1ccc(Cl)cc1 [Example 6, 1′-[4-(4-Chlorophenyl)-5-methyl-4H-1,2,4-triazol-3-yl]-3H-spiro[2-benzofuran-1,4′-piperidine]] | 6.58
4 | OCc1ccc2c(c1)CN(c1nnc(Cn3nccn3)n1-c1ccc(Cl)cc1)C2 [Example 10, {2-[4-(4-Chlorophenyl)-5-(2H-1,2,3-triazol-2-ylmethyl)-4H-1,2,4-triazol-3-yl]-2,3-dihydro-1H-isoindol-5-yl}methanol] | 0.47
